{"source": "ChEMBL document CHEMBL3046817", "about": "“The synthesis and investigation of the antimicrobial activity of some new phenylselanyl-1-(toluene-4-sulfonyl)-1H-tetrazole derivatives” (2009)", "key": {"Yersinia enterocolitica [1]": {"test_system": "Yersinia enterocolitica", "assay": "Antimicrobial activity against Yersinia enterocolitica ATCC 1501 at 25 ug/disk measured after overnight incubation by disk diffusion method", "format": "functional", "details": "for zone of inhibition at 25 µg/disc: read-out: IZ"}, "Staphylococcus aureus [2]": {"test_system": "Staphylococcus aureus", "assay": "Antimicrobial activity against Staphylococcus aureus ATCC 25923 at 25 ug/disk measured after overnight incubation by disk diffusion method", "format": "functional", "details": "for zone of inhibition at 25 µg/disc: read-out: IZ"}, "Salmonella enteritidis [3]": {"test_system": "Salmonella enteritidis", "assay": "Antimicrobial activity against Salmonella enterica subsp. enterica serovar Enteritidis ATCC 13076 at 25 ug/disk measured after overnight incubation by disk diffusion method", "format": "functional", "details": "read-out: IZ"}, "Pseudomonas aeruginosa [4]": {"test_system": "Pseudomonas aeruginosa", "assay": "Antimicrobial activity against Pseudomonas aeruginosa ATCC 27853 at 25 ug/disk measured after overnight incubation by disk diffusion method", "format": "functional"}, "Listeria monocytogenes [5]": {"test_system": "Listeria monocytogenes", "assay": "Antimicrobial activity against Listeria monocytogenes ATCC 7644 at 25 ug/disk measured after overnight incubation by disk diffusion method", "format": "functional"}, "Escherichia coli [6]": {"test_system": "Escherichia coli", "assay": "Antimicrobial activity against Escherichia coli ATCC 11230 at 25 ug/disk measured after overnight incubation by disk diffusion method", "format": "functional", "details": "read-out: IZ"}, "Bacillus cereus [7]": {"test_system": "Bacillus cereus", "assay": "Antimicrobial activity against Bacillus cereus RSKK 863 at 25 ug/disk measured after overnight incubation by disk diffusion method", "format": "functional", "details": "for zone of inhibition at 25 µg/disc: read-out: IZ"}, "Staphylococcus aureus [8]": {"test_system": "Staphylococcus aureus", "assay": "Antimicrobial activity against Staphylococcus aureus ATCC 25923 measured after overnight incubation by disk diffusion method", "format": "functional, organism-based"}, "Yersinia enterocolitica [9]": {"test_system": "Yersinia enterocolitica", "assay": "Antimicrobial activity against Yersinia enterocolitica ATCC 1501 measured after overnight incubation by disk diffusion method", "format": "functional"}, "Salmonella enteritidis [10]": {"test_system": "Salmonella enteritidis", "assay": "Antimicrobial activity against Salmonella enterica subsp. enterica serovar Enteritidis ATCC 13076 measured after overnight incubation by disk diffusion method", "format": "functional"}, "Pseudomonas aeruginosa [11]": {"test_system": "Pseudomonas aeruginosa", "assay": "Antimicrobial activity against Pseudomonas aeruginosa ATCC 27853 measured after overnight incubation by disk diffusion method", "format": "functional"}, "Listeria monocytogenes [12]": {"test_system": "Listeria monocytogenes", "assay": "Antimicrobial activity against Listeria monocytogenes ATCC 7644 measured after overnight incubation by disk diffusion method", "format": "functional"}, "Bacillus cereus [13]": {"test_system": "Bacillus cereus", "assay": "Antimicrobial activity against Bacillus cereus RSKK 863 measured after overnight incubation by disk diffusion method", "format": "functional, organism-based"}, "Escherichia coli [14]": {"test_system": "Escherichia coli", "details": "ATCC 11230", "description": "Antimicrobial activity against Escherichia coli ATCC 11230 measured after overnight incubation by disk diffusion method"}}, "note": "Active and inactive are the calls of the source. The calls are words filed in the database; no cut-off is given here."}
{"smiles": "Cc1ccc(S(=O)(=O)n2nnnc2[Se]c2ccccc2C)cc1", "values": [{"measurement": "inhibition zone (IZ)", "setting": "Yersinia enterocolitica [1]", "result": "inactive"}, {"measurement": "zone of inhibition at 25 µg/disc", "setting": "Staphylococcus aureus [2]", "result": 5.2, "unit": "mm"}, {"measurement": "zone of inhibition at 25 µg/disc", "setting": "Salmonella enteritidis [3]", "result": 2.8, "unit": "mm"}, {"measurement": "inhibition zone (IZ)", "setting": "Pseudomonas aeruginosa [4]", "result": "inactive"}, {"measurement": "inhibition zone (IZ)", "setting": "Listeria monocytogenes [5]", "result": "inactive"}, {"measurement": "zone of inhibition at 25 µg/disc", "setting": "Escherichia coli [6]", "result": 5.4, "unit": "mm"}, {"measurement": "zone of inhibition at 25 µg/disc", "setting": "Bacillus cereus [7]", "result": 4.4, "unit": "mm"}]}
{"smiles": "Cc1ccc(S(=O)(=O)n2nnnc2[Se]c2ccc(Cl)cc2)cc1", "values": [{"measurement": "zone of inhibition at 25 µg/disc", "setting": "Yersinia enterocolitica [1]", "result": 3.4, "unit": "mm"}, {"measurement": "zone of inhibition at 25 µg/disc", "setting": "Staphylococcus aureus [2]", "result": 4.8, "unit": "mm"}, {"measurement": "zone of inhibition at 25 µg/disc", "setting": "Salmonella enteritidis [3]", "result": 7.8, "unit": "mm"}, {"measurement": "inhibition zone (IZ)", "setting": "Pseudomonas aeruginosa [4]", "result": "inactive"}, {"measurement": "inhibition zone (IZ)", "setting": "Listeria monocytogenes [5]", "result": "inactive"}, {"measurement": "zone of inhibition at 25 µg/disc", "setting": "Escherichia coli [6]", "result": 3.2, "unit": "mm"}, {"measurement": "inhibition zone (IZ)", "setting": "Bacillus cereus [7]", "result": "inactive"}]}
{"smiles": "Cc1cc(NS(=O)(=O)c2ccc(N)cc2)no1", "note": "[SULFAMETHOXAZOLE]", "values": [{"measurement": "inhibition zone (IZ)", "setting": "Staphylococcus aureus [8]", "result": "inactive"}, {"measurement": "inhibition zone (IZ)", "setting": "Yersinia enterocolitica [9]", "result": "inactive"}, {"measurement": "inhibition zone (IZ)", "setting": "Salmonella enteritidis [10]", "result": 7.4, "unit": "mm"}, {"measurement": "inhibition zone (IZ)", "setting": "Pseudomonas aeruginosa [11]", "result": 5.5, "unit": "mm"}, {"measurement": "inhibition zone (IZ)", "setting": "Listeria monocytogenes [12]", "result": 10.9, "unit": "mm"}, {"measurement": "inhibition zone (IZ)", "setting": "Bacillus cereus [13]", "result": "inactive"}]}
{"smiles": "Cc1ccc(S(=O)(=O)n2nnnc2[Se]c2ccc(Br)cc2)cc1", "values": [{"measurement": "inhibition zone (IZ)", "setting": "Yersinia enterocolitica [1]", "result": "inactive"}, {"measurement": "zone of inhibition at 25 µg/disc", "setting": "Staphylococcus aureus [2]", "result": 6.2, "unit": "mm"}, {"measurement": "zone of inhibition at 25 µg/disc", "setting": "Salmonella enteritidis [3]", "result": 8.2, "unit": "mm"}, {"measurement": "inhibition zone (IZ)", "setting": "Pseudomonas aeruginosa [4]", "result": "inactive"}, {"measurement": "inhibition zone (IZ)", "setting": "Listeria monocytogenes [5]", "result": "inactive"}, {"measurement": "zone of inhibition at 25 µg/disc", "setting": "Escherichia coli [6]", "result": 5.4, "unit": "mm"}, {"measurement": "inhibition zone (IZ)", "setting": "Bacillus cereus [7]", "result": "inactive"}]}
{"smiles": "Cc1ccc(S(=O)(=O)n2nnnc2[Se]c2ccc(I)cc2)cc1", "values": [{"measurement": "inhibition zone (IZ)", "setting": "Yersinia enterocolitica [1]", "result": "inactive"}, {"measurement": "zone of inhibition at 25 µg/disc", "setting": "Staphylococcus aureus [2]", "result": 8.2, "unit": "mm"}, {"measurement": "zone of inhibition at 25 µg/disc", "setting": "Salmonella enteritidis [3]", "result": 5.8, "unit": "mm"}, {"measurement": "inhibition zone (IZ)", "setting": "Pseudomonas aeruginosa [4]", "result": "inactive"}, {"measurement": "inhibition zone (IZ)", "setting": "Listeria monocytogenes [5]", "result": "inactive"}, {"measurement": "zone of inhibition at 25 µg/disc", "setting": "Escherichia coli [6]", "result": 3.2, "unit": "mm"}, {"measurement": "inhibition zone (IZ)", "setting": "Bacillus cereus [7]", "result": "inactive"}]}
{"smiles": "Cc1ccc([Se]c2nnnn2S(=O)(=O)c2ccc(C)cc2)cc1", "values": [{"measurement": "inhibition zone (IZ)", "setting": "Yersinia enterocolitica [1]", "result": "inactive"}, {"measurement": "inhibition zone (IZ)", "setting": "Staphylococcus aureus [2]", "result": "inactive"}, {"measurement": "zone of inhibition at 25 µg/disc", "setting": "Salmonella enteritidis [3]", "result": 3.2, "unit": "mm"}, {"measurement": "inhibition zone (IZ)", "setting": "Pseudomonas aeruginosa [4]", "result": "inactive"}, {"measurement": "zone of inhibition at 25 µg/disc", "setting": "Listeria monocytogenes [5]; read-out: IZ", "result": 5, "unit": "mm"}, {"measurement": "zone of inhibition at 25 µg/disc", "setting": "Escherichia coli [6]", "result": 4.6, "unit": "mm"}, {"measurement": "zone of inhibition at 25 µg/disc", "setting": "Bacillus cereus [7]", "result": 2.8, "unit": "mm"}]}
{"smiles": "Cc1ccc(S(=O)(=O)n2nnnc2[Se]c2ccccc2Cl)cc1", "values": [{"measurement": "zone of inhibition at 25 µg/disc", "setting": "Yersinia enterocolitica [1]", "result": 5.6, "unit": "mm"}, {"measurement": "zone of inhibition at 25 µg/disc", "setting": "Staphylococcus aureus [2]", "result": 4.2, "unit": "mm"}, {"measurement": "zone of inhibition at 25 µg/disc", "setting": "Salmonella enteritidis [3]", "result": 7, "unit": "mm"}, {"measurement": "zone of inhibition at 25 µg/disc", "setting": "Pseudomonas aeruginosa [4]; read-out: IZ", "result": 4.4, "unit": "mm"}, {"measurement": "inhibition zone (IZ)", "setting": "Listeria monocytogenes [5]", "result": "inactive"}, {"measurement": "zone of inhibition at 25 µg/disc", "setting": "Escherichia coli [6]", "result": 7.4, "unit": "mm"}, {"measurement": "zone of inhibition at 25 µg/disc", "setting": "Bacillus cereus [7]", "result": 3.2, "unit": "mm"}]}
{"smiles": "Cc1ccnc(NS(=O)(=O)c2ccc(N)cc2)n1", "note": "[SULFAMERAZINE]", "values": [{"measurement": "inhibition zone (IZ)", "setting": "Staphylococcus aureus [8]", "result": "inactive"}, {"measurement": "inhibition zone (IZ)", "setting": "Yersinia enterocolitica [9]", "result": 6.1, "unit": "mm"}, {"measurement": "inhibition zone (IZ)", "setting": "Salmonella enteritidis [10]", "result": 6.6, "unit": "mm"}, {"measurement": "inhibition zone (IZ)", "setting": "Pseudomonas aeruginosa [11]", "result": 4.4, "unit": "mm"}, {"measurement": "inhibition zone (IZ)", "setting": "Listeria monocytogenes [12]", "result": 5.1, "unit": "mm"}, {"measurement": "inhibition zone (IZ)", "setting": "Bacillus cereus [13]", "result": "inactive"}, {"measurement": "IZ", "setting": "Escherichia coli [14]", "result": "inactive"}]}
